Activity coefficient data for 19 compounds are collected here from the NIST ThermoML archive (doi:10.1016/j.jct.2016.08.008).

A short description of the data set: activity coefficient (dimensionless); of the first substance listed, at infinite dilution; xn = mol fraction of the nth substance listed. Conditions: 101.33 kPa, Liquid, Chromatography, x1 = 0.

Numbers after ± are expanded uncertainties.

On to `CC#N` [acetonitrile] + CCCCCCCCCCCCn1cc[n+](C)c1.O=S(=O)([N-]S(=O)(=O)C(F)(F)F)C(F)(F)F, for which the activity coefficient reads like this: (318.15 K) 0.508 ± 0.038; (328.15 K) 0.515 ± 0.038; (338.15 K) 0.524 ± 0.039; (348.15 K) 0.531 ± 0.039; (358.15 K) 0.539 ± 0.039; (368.15 K) 0.545 ± 0.04.
In the case of `C#CCCCC` [1-hexyne] + CCCCCCCCCCCCn1cc[n+](C)c1.O=S(=O)([N-]S(=O)(=O)C(F)(F)F)C(F)(F)F, the activity coefficient turned out to be 1.25 ± 0.08 (318.15 K); 1.3 ± 0.08 (328.15 K); 1.35 ± 0.09 (338.15 K); 1.4 ± 0.09 (348.15 K); 1.45 ± 0.1 (358.15 K); 1.49 ± 0.1 (368.15 K).
On to `CCC(C)CC` [3-methylpentane] + CCCCCCCCCCCCn1cc[n+](C)c1.O=S(=O)([N-]S(=O)(=O)C(F)(F)F)C(F)(F)F, for which the activity coefficient by setting is: (318.15 K) 2.77 ± 0.19; (328.15 K) 2.83 ± 0.19; (338.15 K) 2.89 ± 0.2; (348.15 K) 2.94 ± 0.2; (358.15 K) 2.99 ± 0.2; (368.15 K) 3.04 ± 0.21.
For `C1CCCC1` [cyclopentane] + CCCCCCCCCCCCn1cc[n+](C)c1.O=S(=O)([N-]S(=O)(=O)C(F)(F)F)C(F)(F)F, the activity coefficient is 1.75 ± 0.12 (318.15 K); 1.77 ± 0.12 (328.15 K); 1.8 ± 0.12 (338.15 K); 1.82 ± 0.12 (348.15 K); 1.84 ± 0.12 (358.15 K); 1.86 ± 0.13 (368.15 K).
For `Cc1ccc(C)cc1` [1,4-dimethylbenzene] + CCCCCCCCCCCCn1cc[n+](C)c1.O=S(=O)([N-]S(=O)(=O)C(F)(F)F)C(F)(F)F, the activity coefficient runs as follows: (318.15 K) 0.869 ± 0.056; (328.15 K) 0.914 ± 0.058; (338.15 K) 0.958 ± 0.06; (348.15 K) 1 ± 0.06; (358.15 K) 1.05 ± 0.07; (368.15 K) 1.09 ± 0.07.
As to `C1CCCCCC1` [cycloheptane] + CCCCCCCCCCCCn1cc[n+](C)c1.O=S(=O)([N-]S(=O)(=O)C(F)(F)F)C(F)(F)F, the activity coefficient (318.15 K) came out at 2.43 ± 0.17; the activity coefficient (328.15 K) is 2.45 ± 0.17; the activity coefficient (338.15 K) came out at 2.47 ± 0.17; the activity coefficient (348.15 K) is 2.49 ± 0.17; the activity coefficient (358.15 K) amounted to 2.5 ± 0.17; the activity coefficient (368.15 K) stood at 2.52 ± 0.17.
On to `CCCC=O` [butanal] + CCCCCCCCCCCCn1cc[n+](C)c1.O=S(=O)([N-]S(=O)(=O)C(F)(F)F)C(F)(F)F, for which the activity coefficient (318.15 K) was found to be 0.464 ± 0.036; the activity coefficient (328.15 K) came to 0.486 ± 0.037; the activity coefficient (338.15 K) was found to be 0.51 ± 0.038; the activity coefficient (348.15 K) is 0.531 ± 0.039; the activity coefficient (358.15 K) came out at 0.554 ± 0.04; the activity coefficient (368.15 K) was 0.575 ± 0.041.
With `CCO` [ethanol] + CCCCCCCCCCCCn1cc[n+](C)c1.O=S(=O)([N-]S(=O)(=O)C(F)(F)F)C(F)(F)F, the activity coefficient runs as follows: (318.15 K) 1.38 ± 0.09; (328.15 K) 1.3 ± 0.08; (338.15 K) 1.23 ± 0.08; (348.15 K) 1.17 ± 0.07; (358.15 K) 1.11 ± 0.07; (368.15 K) 1.06 ± 0.07.
For the compound `COC(C)(C)C` [2-methoxy-2-methylpropane] + CCCCCCCCCCCCn1cc[n+](C)c1.O=S(=O)([N-]S(=O)(=O)C(F)(F)F)C(F)(F)F, the activity coefficient (318.15 K) is 0.93 ± 0.059; the activity coefficient (328.15 K) was 0.985 ± 0.062; the activity coefficient (338.15 K) stood at 1.04 ± 0.07; the activity coefficient (348.15 K) is 1.09 ± 0.07; the activity coefficient (358.15 K) turned out to be 1.14 ± 0.07; the activity coefficient (368.15 K) came out at 1.2 ± 0.08.
Consider `CCC(=O)OC` [methyl propanoate] + CCCCCCCCCCCCn1cc[n+](C)c1.O=S(=O)([N-]S(=O)(=O)C(F)(F)F)C(F)(F)F, for which the activity coefficient is 0.531 ± 0.039 (318.15 K); 0.557 ± 0.04 (328.15 K); 0.583 ± 0.041 (338.15 K); 0.608 ± 0.043 (348.15 K); 0.634 ± 0.044 (358.15 K); 0.659 ± 0.045 (368.15 K).
For the compound `Cc1cccc(C)c1` [1,3-dimethylbenzene] + CCCCCCCCCCCCn1cc[n+](C)c1.O=S(=O)([N-]S(=O)(=O)C(F)(F)F)C(F)(F)F, the activity coefficient (318.15 K) was determined as 0.874 ± 0.056; the activity coefficient (328.15 K) turned out to be 0.918 ± 0.058; the activity coefficient (338.15 K) was determined as 0.96 ± 0.06; the activity coefficient (348.15 K) was 1 ± 0.06; the activity coefficient (358.15 K) turned out to be 1.04 ± 0.07; the activity coefficient (368.15 K) came out at 1.09 ± 0.07.
With `C1CCCCCCC1` [cyclooctane] + CCCCCCCCCCCCn1cc[n+](C)c1.O=S(=O)([N-]S(=O)(=O)C(F)(F)F)C(F)(F)F, the activity coefficient (318.15 K) amounted to 2.8 ± 0.19; the activity coefficient (328.15 K) came out at 2.82 ± 0.19; the activity coefficient (338.15 K) worked out at 2.83 ± 0.19; the activity coefficient (348.15 K) was found to be 2.84 ± 0.19; the activity coefficient (358.15 K) was found to be 2.85 ± 0.19; the activity coefficient (368.15 K) is 2.86 ± 0.19.
As to `CCCO` [propan-1-ol] + CCCCCCCCCCCCn1cc[n+](C)c1.O=S(=O)([N-]S(=O)(=O)C(F)(F)F)C(F)(F)F, the activity coefficient (318.15 K) turned out to be 1.45 ± 0.1; the activity coefficient (328.15 K) is 1.36 ± 0.09; the activity coefficient (338.15 K) was 1.29 ± 0.08; the activity coefficient (348.15 K) was found to be 1.22 ± 0.08; the activity coefficient (358.15 K) amounted to 1.16 ± 0.07; the activity coefficient (368.15 K) was found to be 1.11 ± 0.07.
Regarding `C=CCCCC` [hex-1-ene] + CCCCCCCCCCCCn1cc[n+](C)c1.O=S(=O)([N-]S(=O)(=O)C(F)(F)F)C(F)(F)F, the activity coefficient came to 2.15 ± 0.15 (318.15 K); 2.2 ± 0.15 (328.15 K); 2.25 ± 0.15 (338.15 K); 2.29 ± 0.16 (348.15 K); 2.34 ± 0.16 (358.15 K); 2.38 ± 0.16 (368.15 K).
In the case of `CC(C)=O` [acetone] + CCCCCCCCCCCCn1cc[n+](C)c1.O=S(=O)([N-]S(=O)(=O)C(F)(F)F)C(F)(F)F, the activity coefficient turned out to be 0.353 ± 0.032 (318.15 K); 0.369 ± 0.033 (328.15 K); 0.386 ± 0.033 (338.15 K); 0.401 ± 0.034 (348.15 K); 0.417 ± 0.035 (358.15 K); 0.432 ± 0.035 (368.15 K).
Consider `CC(C)c1ccccc1` [isopropylbenzene] + CCCCCCCCCCCCn1cc[n+](C)c1.O=S(=O)([N-]S(=O)(=O)C(F)(F)F)C(F)(F)F, for which the activity coefficient by setting is: (318.15 K) 1.15 ± 0.07; (328.15 K) 1.2 ± 0.08; (338.15 K) 1.24 ± 0.08; (348.15 K) 1.28 ± 0.08; (358.15 K) 1.32 ± 0.09; (368.15 K) 1.36 ± 0.09.
Take `C#CCCCCCC` [1-octyne] + CCCCCCCCCCCCn1cc[n+](C)c1.O=S(=O)([N-]S(=O)(=O)C(F)(F)F)C(F)(F)F: the activity coefficient came out at 1.74 ± 0.12 (318.15 K); 1.8 ± 0.12 (328.15 K); 1.87 ± 0.13 (338.15 K); 1.93 ± 0.13 (348.15 K); 1.99 ± 0.14 (358.15 K); 2.06 ± 0.14 (368.15 K).
In the case of `Cc1ccccc1` [toluene] + CCCCCCCCCCCCn1cc[n+](C)c1.O=S(=O)([N-]S(=O)(=O)C(F)(F)F)C(F)(F)F, the activity coefficient reads like this: (318.15 K) 0.699 ± 0.047; (328.15 K) 0.732 ± 0.048; (338.15 K) 0.765 ± 0.05; (348.15 K) 0.8 ± 0.052; (358.15 K) 0.832 ± 0.054; (368.15 K) 0.864 ± 0.055.
Turning to `c1ccncc1` [pyridine] + CCCCCCCCCCCCn1cc[n+](C)c1.O=S(=O)([N-]S(=O)(=O)C(F)(F)F)C(F)(F)F, the activity coefficient (318.15 K) was 0.387 ± 0.034; the activity coefficient (328.15 K) turned out to be 0.404 ± 0.034; the activity coefficient (338.15 K) came to 0.42 ± 0.04; the activity coefficient (348.15 K) came to 0.435 ± 0.035; the activity coefficient (358.15 K) amounted to 0.451 ± 0.036; the activity coefficient (368.15 K) came out at 0.466 ± 0.036.
